Measured values: ChEMBL document CHEMBL4888484, “Replenishing the malaria drug discovery pipeline: Screening and hit evaluation of the MMV Hit Generation Library 1 (HGL1) against asexual blood stage Plasmodium falciparum ,using a nano luciferase reporter read-out” (2022)

Columns and labels:
Plasmodium falciparum [1] = test: Hit confirmation in dose-response curve in NF54 nanoGlo assay, at 72h; assay type: functional, organism-based, Erythrocyte; set-up: timepoint 72 hour; conditions: Plasmodium falciparum, NF54, Erythrocyte, 72 h
Plasmodium falciparum [2] = test: Hit confirmation in dose-response curve in NF54 pLDH assay, at 72h; assay type: functional, organism-based; set-up: timepoint 72 hour; conditions: NF54, Erythrocyte
Plasmodium falciparum [3] = test: Hit confirmation in dose-response curve in Dd2 pLDH assay, at 72h; assay type: functional, organism-based; set-up: timepoint 72 hour; conditions: Dd2, Erythrocyte
Plasmodium falciparum [4] = test: Hit confirmation in dose-response curve in NF54 nanoGlo assay, at 12h; assay type: functional, organism-based, Erythrocyte; set-up: timepoint 12 hour; conditions: Plasmodium falciparum, NF54, Erythrocyte, 12 h
[5] = Hit confirmation in dose-response curve in HepG2 cytotoxicity assay, at 72h; assay type: toxicity, cell-based; set-up: timepoint 72 hour; conditions: human, HepG2 cells

Structure (SMILES) | IC50 (Plasmodium falciparum [1]) | IC50 (Plasmodium falciparum [2]) | IC50 (Plasmodium falciparum [3]) | IC50 (Plasmodium falciparum [4]) | IC50 at 72 h [5]
CCC(C(=O)Nc1ccc2c(c1)CN(CCc1ccc(OC)c(OC)c1)C(=O)C(C)O2)c1ccccc1 (stereo not given) | 288 nM | 2.88 µM | 1820 nM | 0.912 µM | > 10 µM
O=C(CCc1ccc(Cl)c(C(F)(F)F)c1)N1CC[C@H](N2CCc3ccccc3C2)C1 | 5500 nM | 5.62 µM | 8320 nM | > 10 µM | > 10 µM
CCN1C(=O)c2ccccc2N2C(=O)CC[C@@]12C(=O)Nc1cccc(OC)c1 | 1000 nM | 1.35 µM | 1230 nM | 1.7 µM | > 10 µM
CC[N+](C)(CC)CCOc1cc(C)c2ccccc2n1 | 2240 nM | 4.68 µM | 2690 nM | > 10 µM | > 10 µM
O=c1nc2n(nc1-c1ccccc1)C1(CCC1)Nc1ccccc1-2 | 759 nM | 2.82 µM | 1860 nM | 4.07 µM | > 10 µM
C[C@H]1[C@@H]2[C@@H](O)C([C@H](C)C(=O)NC3CCCCC3)CC[C@@]2(C)CC[C@@H]1NC(=O)CC(C)(C)C (stereo not given in full) | > 10000 nM | 3.47 µM | 2880 nM | > 10 µM | > 10 µM
Cc1cc(C(=O)NC2CC(C)n3ccnc32)nn1C(C)C (stereo not given) | 2450 nM | 0.1 µM | > 10000 nM | > 10 µM | > 10 µM
CNc1nc(NCCc2ccccc2)nc2ccccc12 | 912 nM | 1.86 µM | 661 nM | > 10 µM | > 10 µM
CC(C)(C)[C@H]1CCc2c(sc(NC(=O)C3(F)C(F)(F)C(F)(F)C(F)(F)C(F)(F)C3(F)F)c2C#N)C1 | 2190 nM | 2.95 µM | 2570 nM | 5.75 µM | 4.57 µM
CC[n+]1c(/C=C/N(C)c2ccccc2)oc2ccc(-c3ccccc3)cc21 | 562 nM | 0.891 µM | 417 nM | 5.37 µM | > 10 µM
Cc1cc(C)n(-c2nc(Nc3ccc(Cl)cc3)nc(Nc3ccc(Cl)cc3)n2)n1 | 2190 nM | > 10 µM | 3630 nM | 6.76 µM | > 10 µM
CCC[N+]1(CC#C[C@@](O)(c2ccccc2)C(C)(CC)CC)CCCCC1 | 3390 nM | 4.37 µM | 4270 nM | > 10 µM | > 10 µM

Continued, in another order:

IC50 (Plasmodium falciparum [1]) | IC50 (Plasmodium falciparum [2]) | IC50 (Plasmodium falciparum [3]) | IC50 (Plasmodium falciparum [4]) | Structure (SMILES) | IC50 at 72 h [5]
1020 nM | 5.5 µM | 3550 nM | 1 µM | Cc1nn(-c2ccccn2)c(O)c1C(c1ccccc1)c1c(C)nn(-c2ccccn2)c1O | > 10 µM
3550 nM | > 10 µM | 6610 nM | 4.9 µM | COc1ccc(CCNc2nc(-c3ccc(OC)cc3F)c3c(N)n(-c4ccc(Cl)cc4)nc3n2)cc1 | > 10 µM
1200 nM | 3.24 µM | 2750 nM | 1.26 µM | O=C(Nc1cc(-c2onc3c2CCCC3)cc(C(F)(F)F)c1)c1cncc(Br)c1 | > 10 µM
2820 nM | 1.26 µM | 3390 nM | > 10 µM | CC[C@H]1CN2C=NC(N3CCN(C(=O)Nc4cc(F)cc(F)c4)CC3)=CC2=N1 | > 10 µM
> 10000 nM | > 10 µM | 7760 nM | > 10 µM | CCOc1ccc(NC(=O)c2cn3nc(-c4ccc(OCC)cc4)cc3nc2C2CCN(C(=O)OC(C)(C)C)CC2)cc1 | > 10 µM
4270 nM | > 10 µM | 5250 nM | 7.59 µM | COc1cc2ncc3c(-c4ccc(C)c(C)c4)n[nH]c3c2cc1OC | > 10 µM
871 nM | 4.47 µM | 1580 nM | > 10 µM | O=C1c2ccccc2C(c2ccc(NC(=O)c3cccc4ccccc34)cc2)(c2ccc(NC(=O)c3cccc4ccccc34)cc2)c2ccccc21 | > 10 µM
3160 nM | 6.46 µM | 3470 nM | 7.24 µM | O[C@@H](CNCc1ccsc1C(F)(F)F)c1cc(Cl)c2c(c1)OCCO2 | > 10 µM
2000 nM | 1 µM | 2690 nM | 3.16 µM | Cc1nnc(-c2ccc3ccn(CC(=O)Nc4ccc(F)c(Cl)c4)c3c2)o1 | > 10 µM
2690 nM | 8.13 µM | 3390 nM | > 10 µM | Cc1ccc(Cn2c(=O)c(C(=O)NCc3ccc4c(c3)OCO4)nn(-c3ccc(C(C)C)cc3)c2=O)cc1 | > 10 µM
871 nM | 1.82 µM | 1860 nM | > 10 µM | CCCc1cc(-c2nc(-c3ccc(-n4nc(C)cc4N)cc3)no2)n(C)n1 | > 10 µM
4570 nM | 9.55 µM | > 10000 nM | 6.61 µM | CCc1c2c(=O)n(-c3nc4ccccc4s3)[nH]c2cc(=O)n1CCCN1CCOCC1 | > 10 µM
